One data set relates to PC3 cells. Put plainly: MTT cytotoxicity assay, PC3. As for the experimental part: (§1) Human cervical cancer HeLa, human osteosarcoma U2OS, human prostate PC3 cell lines were procured from the ATCC. A549 lung carcinoma cells were obtained from Prof. David E. Root, Whitehead Institute for Biomedical Research. HeLa, U2OS, and A549 Cells were grown at 37° C. in 5% CO2 in DMEM medium supplemented with 10% fetal bovine serum and 1% penicillin/streptomycin. PC3 cells were grown at 37° C. in 5% CO2 in RPMI supplemented with 10% fetal bovine serum and 1% penicillin/streptomycin. Cells were passed every 3 to 4 days and restarted from frozen stocks upon reaching pass number 20.
(§2) In order to investigate the efficacy of Pt-DNA-Au NPs, their ability to kill cancer cells of various origin was measured. […] Cells were seeded on a 96 well plate in 100 μL media and incubated for 24 hours. The cells were then treated with Pt-DNA-Au NP, 1, or cisplatin, separately at varying concentrations and incubated for 72 hours at 37° C. Medium was removed, cells were washed with PBS and then incubated with cell culture medium containing 20% 3-(4,5-dimethylthiazol-2-yl)-2,5-diphenyltetrazolium bromide (MTT). […] Cells were further incubated overnight and the absorbance was measured at 620 nm using a BioTek Synergy HT multi-detection microplate plate reader. […]
(Tetrazolium dyes change colour on reduction, which living cells bring about.)

A short description of data set [1]: Cyclic voltammetry, reduction potential of the Pt(IV) complex. As to conditions: Ag/AgCl reference, 25° C. It counts as physicochemical. As for the experimental part: The conjugate was designed to release a cytotoxic dose of cisplatin upon intracellular reduction. An ideal Pt(IV) complex should be sufficiently stable to travel through the blood stream until it reaches a tumor cell without decomposition. Once inside the cell, however, it should have an appropriate reduction potential such that it will be reduced and release its cytotoxic payload. Electrochemical measurements were made at 25° C. on a EG&G PAR Model 263 Potentiostat/Galvanostat with electrochemical analysis software 270 and a three electrode set-up comprising a glassy carbon working electrode, platinum wire auxiliary electrode and a Ag/AgCl reference electrode. The electrochemical data were uncorrected for junction potentials. KCl was used as a supporting electrolyte.

Another data set has as its system A549 cells. As for the experimental part: as §1, §2
For another data set, the system named is U2OS cells. In words: MTT cytotoxicity assay, U2OS. It counts as cell-based, human. The settings on record: 72 hour treatment. The method, then:
as §1, §2

One may read the pIC50 as the IC50 on a negative log10 scale, so that one unit is a factor of ten.

pIC50: −log10 of the molar value.

On to `[NH2][Pt]([NH2])([OH])([Cl])([Cl])[O]C(=O)CCC(=O)O` [Compound 1, c,c,t-[Pt(NH3)2Cl2(OH)(O2CCH2CH2CO2H)]], for which the “cytotoxicity (in words)” value with PC3 cells and in the data set with A549 cells was “did not show any significant killing” each time. Besides, the reduction potential in data set [1] (pH 6.0, phosphate buffer-0.1 M KCl) was −0.42 V; in data set [1] (pH 7.4, phosphate buffer-0.1 M KCl, extrapolated to 0.0 mV s-1 scan rate), −0.49 V.

For the compound `N.N.[Cl][Pt][Cl]` [cisplatin, cis-diamminedichloroplatinum(II), reference compound], the pIC50 with PC3 cells (PC3 cells, 72 hour treatment, MTT) is 5.34; in the data set with U2OS cells, 5.29.

Values taken from US20120244230A1, “POLYVALENT POLYNUCLEOTIDE NANOPARTICLE CONJUGATES AS DELIVERY VEHICLES FOR A CHEMOTHERAPEUTIC AGENT” (priority 2009, published 2012).
